# According to article PMC5914176 (Journal of medicinal chemistry, 2018):
# “And” between values parts separate entries of the source, which are not always exact repeats. Equal values may be shown once. Read-outs that look alike come from different tables or passages of the source.
# Experiments:
# in vitro = details: female, CD9, mouse, microsomes, three replicates
# DCN1-UBE2M interaction [1] = biological target: T1, DCN1-UBE2M interaction (Homo sapiens, UniProt Q96GG9); experiment: biochemical; format: binding
# T1 sequence (Q96GG9 whole entry): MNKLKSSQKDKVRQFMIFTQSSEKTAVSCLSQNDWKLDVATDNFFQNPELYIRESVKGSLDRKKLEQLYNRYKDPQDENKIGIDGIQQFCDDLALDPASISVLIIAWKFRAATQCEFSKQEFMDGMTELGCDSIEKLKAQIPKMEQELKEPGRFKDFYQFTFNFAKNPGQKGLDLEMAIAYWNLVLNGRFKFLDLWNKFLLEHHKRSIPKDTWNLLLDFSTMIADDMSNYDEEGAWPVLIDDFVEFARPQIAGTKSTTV
# [2] = Liver microsomal stability; details: for t(1/2): mouse microsomes, 0.8 μM, mean ± SD, three replicates
# in vivo [3] = experiment: in vivo; parameters: species or system mice
# [4] = format: in vivo, mice; details: 14 days, 200 mg/kg oral QD or BID
# HCC95 cells [5] = experiment: Western blot for cellular neddylation and substrate levels; format: cell-based
# [6] = for adverse reactions or compound-related side effects after IV dosing: 48 h monitoring after single IV dose
# HCC95 cells [7] = details: cited from earlier work
# [8] = test system: DCN1/2 over remaining human DCN isoforms; details: cited from earlier work
# HCC95 cells [9] = details: cited from earlier work; remark: listed apart in the source
# in vivo [10] = details: mouse, iv, 1.5 mg/kg, t1/2 (IV half-life), IV 0.5, 1.0 and 1.5 mg/kg, plasma
# DCN1-UBE2M interaction [11] = biological target: T1, DCN1-UBE2M interaction; details: previously reported potency; cited from earlier work
# [12] = pH 7.4, CLint, Table 1, mean ± SD
# [13] = pH 7.4, CLint’, Table 3, mean ± SD
# [14] = pH 7.4, CLint’, Table 5, mean ± SD
# [15] = pH 7.4, CLint’, Table 2, mean ± SD
# [16] = female, CD9, mouse, microsomes, pH 7.4
# [17] = IC50, rounded values in running text
smiles,measurement,setting,value
O=C(Nc1cccc(C(F)(F)F)c1)NC1CCN(Cc2ccccc2)CC1 [Compound 2],CLint scaled at 0.8 µM,in vitro; [12],91.4 ± 8.12 mL/min/kg
CCCC(C)N1CCC(N(Cc2ccccc2)C(=O)Nc2ccc(F)c(F)c2)CC1 (stereo not shown) [Compound 32],CLint scaled at 0.8 µM,in vitro; [13],302 ± 15.2 mL/min/kg
CCCCN1CCC(N(Cc2ccccc2)C(=O)Nc2cccc(C#N)c2)CC1 [Compound 66],CLint scaled at 0.8 µM,in vitro; [14],349 ± 22.5 mL/min/kg
CCCC(C)N1CCC(N(Cc2ccccc2)C(=O)Nc2ccc(C)c(F)c2)CC1 (stereo not shown) [Compound 33],CLint scaled at 0.8 µM,in vitro; [13],381 ± 31.9 mL/min/kg
CCCCN1CCC(N(Cc2ccccc2)C(=O)Nc2ccc(C)c(Cl)c2)CC1 [Compound 71],CLint scaled at 0.8 µM,in vitro; [14],189 ± 14.5 mL/min/kg
CCCCN1CCC(N(Cc2ccccc2)C(=O)Nc2ccc(F)c(C(F)(F)F)c2)CC1 [Compound 70],CLint scaled at 0.8 µM,in vitro; [14],27.9 ± 2.71 mL/min/kg
CCCCN1CCC(N(Cc2ccccc2)C(=O)Nc2ccc(F)c(Cl)c2)CC1 [Compound 72],CLint scaled at 0.8 µM,in vitro; [14],38.7 ± 1.63 mL/min/kg
CCCCN1CCC(N(Cc2ccccc2)C(=O)Nc2cccc(C(F)(F)F)c2F)CC1 [Compound 69],CLint scaled at 0.8 μM,in vitro; [14],≥ 500 mL/min/kg
CCCC(C)N1CCC(N(Cc2ccccc2)C(=O)Nc2ccc(C(C)C)cc2)CC1 (stereo not shown) [Compound 29],CLint scaled at 0.8 µM,in vitro; [15],323 ± 4.46 mL/min/kg
CCCCN1CCC(N(Cc2ccccc2)C(=O)Nc2cccc(C)c2)CC1 [Compound 64],CLint scaled at 0.8 µM,in vitro; [14],305 ± 4.02 mL/min/kg
CCCC(C)N1CCC(N(Cc2ccccc2)C(=O)Nc2cccc(F)c2)CC1 (stereo not shown) [Compound 21],CLint scaled at 0.8 μM,in vitro; [15],≥ 500 mL/min/kg
CCCC(C)N1CCC(N(Cc2ccccc2)C(=O)Nc2ccc3c(c2)CCC3)CC1 (stereo not shown) [Compound 43],CLint scaled at 0.8 μM,in vitro; [13],≥ 500 mL/min/kg
CCCCN1CCC(N(Cc2ccccc2)C(=O)Nc2cc(F)cc(C(F)(F)F)c2)CC1 [Compound 47],fold reduction in biochemical potency versus compound 7,DCN1-UBE2M interaction [1],five-fold
same,CLint scaled at 0.8 µM,in vitro; [14],22.3 ± 4.88 mL/min/kg
CCCC(C)N1CCC(N(Cc2ccccc2)C(=O)Nc2ccc(Cl)c([N+](=O)[O-])c2)CC1 (stereo not shown) [Compound 31],CLint scaled at 0.8 µM,in vitro; [13],151 ± 10.2 mL/min/kg
CCCCN1CCC(N(Cc2ccccc2)C(=O)Nc2cccc(Cl)c2)CC1 [Compound 63],CLint scaled at 0.8 μM,in vitro; [14],≥ 500 mL/min/kg
CCCC(C)N1CCC(N(Cc2ccccc2)C(=O)Nc2cc(Cl)ccc2F)CC1 (stereo not shown) [Compound 39],CLint scaled at 0.8 µM,in vitro; [13],230 ± 13.1 mL/min/kg
CCCN1CCC(N(Cc2ccccc2)C(=O)Nc2cccc(C(F)(F)F)c2)CC1 [Compound 4],CLint scaled at 0.8 µM,in vitro; [12],318 ± 29.6 mL/min/kg
CCCC(C)N1CCC(N(Cc2ccccc2)C(=O)Nc2ccc(F)c(C(F)(F)F)c2)CC1 (stereo not shown) [Compound 35],CLint scaled at 0.8 µM,in vitro; [13],145 ± 9.51 mL/min/kg
O=C(Nc1cccc(C(F)(F)F)c1)N(Cc1ccccc1)C1CCN(CC2CC2)CC1 [Compound 5],CLint scaled at 0.8 μM,in vitro; [12],> 500 mL/min/kg
CCCC(C)N1CCC(N(Cc2ccccc2)C(=O)Nc2ccc(C#N)c(C(F)(F)F)c2)CC1 (stereo not shown) [Compound 34],CLint scaled at 0.8 µM,[2]; [16],61.3 ± 3.49 mL/min/kg
same,CLint scaled at 0.8 μM,[2]; [16],60 mL/min/kg
CC(C)(C)N1CCC(N(Cc2ccc3c(c2)OCO3)C(=O)Nc2cccc(C(F)(F)F)c2)CC1 [Compound 9],CLint scaled at 0.8 µM,in vitro; [12],434 ± 21.1 mL/min/kg
CCCN1CCC(N(Cc2ccc3c(c2)OCO3)C(=O)Nc2cccc(C(F)(F)F)c2)CC1 [Compound 1],CLint scaled at 0.8 μM,in vitro; [12],> 500 mL/min/kg
CCCC(C)N1CCC(N(Cc2ccccc2)C(=O)Nc2ccc3ncsc3c2)CC1 (stereo not shown) [Compound 42],CLint scaled at 0.8 µM,in vitro; [13],240 ± 24 mL/min/kg
CCCC(C)N1CCC(N(Cc2ccccc2)C(=O)Nc2cc(F)cc(C(F)(F)F)c2)CC1 (stereo not shown) [Compound 36],CLint scaled at 0.8 µM,in vitro; [13],291 ± 22.4 mL/min/kg
CCCC(C)N1CCC(N(Cc2ccccc2)C(=O)Nc2cc(C(F)(F)F)ccc2F)CC1 (stereo not shown) [Compound 38],CLint scaled at 0.8 µM,in vitro; [13],66.9 ± 5.15 mL/min/kg
CCCC(C)N1CCC(N(Cc2ccccc2)C(=O)Nc2cccc(Cl)c2)CC1 (stereo not shown) [Compound 22],CLint scaled at 0.8 μM,in vitro; [15],≥ 500 mL/min/kg
CCCN1CCC(N(Cc2ccco2)C(=O)Nc2cccc(C(F)(F)F)c2)CC1 [Compound 3],CLint scaled at 0.8 µM,in vitro; [12],394 ± 55.2 mL/min/kg
CCCN1CCC(N(Cc2cc(F)cc(C(F)(F)F)c2)C(=O)Nc2cccc(C(F)(F)F)c2)CC1 [Compound 10],CLint scaled at 0.8 µM,in vitro; [12],199 ± 9.99 mL/min/kg
CCCCN1CCC(N(Cc2ccc3c(c2)OCO3)C(=O)Nc2cccc(C(F)(F)F)c2)CC1 [Compound 8],CLint scaled at 0.8 µM,in vitro; [12],220 ± 12.8 mL/min/kg
CCCC(C)N1CCC(N(Cc2ccccc2)C(=O)Nc2ccc(C(F)(F)F)cc2)CC1 (stereo not shown) [Compound 24],CLint scaled at 0.8 µM,in vitro; [15],125 ± 3.17 mL/min/kg
CCCC(C)N1CCC(N(Cc2ccccc2)C(=O)Nc2ccc(Br)cc2)CC1 (stereo not shown) [Compound 26],IC50,DCN1-UBE2M interaction [1]; [17],~60 nM
same,CLint scaled at 0.8 µM,in vitro; [15],148 ± 7.63 mL/min/kg
CCCCN1CCC(N(Cc2ccccc2)C(=O)Nc2cccc(C(F)(F)F)c2)CC1 [Compound 6],CLint scaled at 0.8 µM,in vitro; [12],361 ± 45.1 mL/min/kg
"CCCCN1CCC(N(Cc2ccccc2)C(=O)Nc2ccc(Cl)c(Cl)c2)CC1 [Compound 67, 1-benzyl-1-(1-butylpiperidin-4-yl)-3-(3,4-dichlorophenyl)urea]",adverse reaction after oral administration,"in vivo [3]; 48 h monitoring, any dose tested",did not cause a significant adverse reaction at any dose tested
same,half-life,"in vivo [3]; mouse, in vivo, po, 200 mg/kg",3 to 5 h
same,"adverse reactions or compound-related side effects, repeat dosing",[4],no adverse reactions or compound-related side effects were observed
same,gross substrate stabilization,HCC95 cells [5]; HCC95,does not elicit gross substrate stabilization
same,steady-state levels of neddylated CUL1 and CUL3,"HCC95 cells [5]; HCC95, 48 hours, dosing at T = 0 and T = 24 hr",inhibits steady-state levels of neddylated CUL1 and CUL3 in a dose-dependent manner
same,levels of CUL1/CUL3 substrates NRF2 and p27,"HCC95 cells [5]; HCC95, 48 hours, longer exposures",dose-dependent increase
same,fold lower clearance in mouse microsomes than compound 7,,six-fold
same,adverse reactions or compound-related side effects after IV dosing,[6],failed to induce any measureable adverse reactions
same,steady-state levels of neddylated cullins (selectivity among cullins),HCC95 cells [7]; HCC95,"selectively reduces steady-state levels of neddylated CUL1 and CUL3 while CUL2, CUL4A, and CUL5 are relatively unaffected"
same,selectivity for DCN1/2 over other DCN isoforms,[8],high level of selectivity for inhibition of DCN1/2 over the highly homologous remaining human DCN isoforms
same,anchorage-independent growth,HCC95 cells [9],inhibits the anchorage-independent growth of HCC95 cells
same,half-life,in vivo [10],3 to 4 h
same,CLint scaled at 0.8 μM,in vitro; [14],25.6 ± 4.08 mL/min/kg
same,t(1/2),[2]; Table 5,2.11 ± 0.336 h
same,bioavailability predicted from in vitro clearance (Fin vitro),[2]; calculated by 1 - CL/Qh,78%
CCCC(C)N1CCC(N(Cc2ccccc2)C(=O)Nc2ccc(C(F)(F)F)nc2C)CC1 (stereo not shown) [Compound 41],CLint scaled at 0.8 μM,in vitro; [13],< 13.5 mL/min/kg
CCCC(C)N1CCC(N(Cc2ccccc2)C(=O)Nc2ccc(C)cc2)CC1 (stereo not shown) [Compound 28],CLint scaled at 0.8 µM,in vitro; [15],356 ± 31.9 mL/min/kg
CCCC(C)N1CCC(N(Cc2ccccc2)C(=O)Nc2cccc(C(C)C)c2)CC1 (stereo not shown) [Compound 23],CLint scaled at 0.8 µM,in vitro; [15],256 ± 22.4 mL/min/kg
CCCC(C)N1CCC(N(Cc2ccccc2)C(=O)Nc2ccc(I)cc2)CC1 (stereo not shown) [Compound 27],IC50,DCN1-UBE2M interaction [1]; [17],~60 nM and 50 nM
same,CLint scaled at 0.8 µM,in vitro; [15],115 ± 2.78 mL/min/kg
"CCCC(C)N1CCC(N(Cc2ccccc2)C(=O)Nc2cccc(C(F)(F)F)c2)CC1 (stereo not shown) [Compound 7, 1-benzyl-1-(1-(pentan-2-yl)piperidin-4-yl)-3-(3-(trifluoromethyl)phenyl)urea]",fold more potent than initial hit (compound 2),DCN1-UBE2M interaction [1],100 fold
same,adverse reactions or compound-related side effects after IV dosing,[6],We did not observe any adverse reactions or compound-related side effects
same,t1/2 (IV half-life),"[6]; IV 0.5, 1.0 and 1.5 mg/kg, plasma",8.4 to 12 min
same,IC50,DCN1-UBE2M interaction [11],60 nM
same,steady-state levels of cullin neddylation,HCC95 cells [7]; HCC95 cells,suppresses steady-state levels of cullin neddylation
same,CLint scaled at 0.8 μM,in vitro; [12],165 ± 25.9 mL/min/kg
same,t(1/2),[2]; Table 1,0.327 ± 0.010 h
CCCC(C)N1CCC(N(Cc2ccccc2)C(=O)Nc2ccc(Cl)cc2)CC1 (stereo not shown) [Compound 25],IC50,DCN1-UBE2M interaction [1]; IC50,100 nM
same,CLint scaled at 0.8 µM,in vitro; [15],156 ± 10.7 mL/min/kg
